Results taken from PubChem BioAssay (NCI).
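Grown in 96-well plates, cells were treated for 48 hours with each compound at five concentrations. Insufficient inhibition: endpoint recorded as highest concentration tested. TGI: total growth inhibition.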

Experiments:
Experiment in all cases: NCI-60 cell line screen, 48 h
[1] = test system: CAKI-1 renal
[2] = test system: SN12C renal
[3] = test system: IGROV1 ovarian
[4] = test system: SNB-75 CNS
[5] = test system: DMS 273 small cell lung
[6] = test system: MOLT-4 leukemia
[7] = test system: OVCAR-8 ovarian
[8] = test system: KM12 colon
[9] = test system: HL-60(TB) leukemia
[10] = test system: M14 melanoma
[11] = test system: A549 NSCLC
[12] = test system: SW-620 colon
[13] = test system: M19-MEL melanoma
[14] = test system: UACC-62 melanoma
[15] = test system: EKVX NSCLC
[16] = test system: UO-31 renal
[17] = test system: DMS 114 small cell lung
[18] = test system: TK-10 renal
[19] = test system: RPMI-8226 leukemia
[20] = test system: SK-MEL-28 melanoma
[21] = test system: NCI-H522 lung
[22] = test system: RXF 393 renal
[23] = test system: CCRF-CEM leukemia
[24] = test system: HCT-15 colon
[25] = test system: NCI-H226 lung
[26] = test system: SK-MEL-5 melanoma
[27] = test system: OVCAR-3 ovarian
[28] = test system: SNB-19 CNS
[29] = test system: K-562 leukemia
[30] = test system: COLO 205 colon
[31] = test system: SF-268 CNS
[32] = test system: HT29 colon
[33] = test system: SF-295 CNS
[34] = test system: SF-539 CNS
[35] = test system: UACC-257 melanoma
[36] = test system: SK-OV-3 ovarian
[37] = test system: LOX IMVI melanoma
[38] = test system: NCI-H23 lung
[39] = test system: HCC-2998 colon
[40] = test system: KM20L2 colon
[41] = test system: NCI-H460 lung
[42] = test system: U251 CNS
[43] = test system: ACHN renal
[44] = test system: A498 renal
[45] = test system: SK-MEL-2 melanoma
[46] = test system: HOP-92 NSCLC
[47] = test system: HCT-116 colon
[48] = test system: HOP-62 NSCLC
[49] = test system: SNB-78 CNS
[50] = test system: LXFL 529 NSCLC
[51] = test system: SR leukemia
[52] = test system: XF 498 CNS
[53] = test system: OVCAR-5 ovarian

Measured: TGI

O=C1N[C@@H]2CCC[C@@H]2[C@@H]1c1ccc(Cl)cc1
not listed: [39] | [40] | [41] | [42] | [43] | [44] | [45] | [46] | [47] | [48] | [49] | [50] | [51] | [52] | [53]
> 100 µM: all other assays above

CCCO/N=[N+](\[O-])N(CC)CC
not listed: [1] | [4] | [13] | [17] | [19] | [30]
> 100 µM: all other assays above
